Data on two compounds can be found in US11180484B2, “Pyrazole derivatives as plasma kallikrein inhibitors” (KALVISTA PHARMACEUTICALS LIMITED, priority 2016, dated 2021).

One series concerns the target Human Factor XIIa (Homo sapiens (Human), UniProt P00748). The series is described as follows: Factor XIIa inhibitory activity in vitro. In kind it is biochemical. The settings on record: 25° C., substrate H-DPro-Phe-Arg-AFC; read-out: IC50 (human FXIIa). Here is the method: Human Factor XIIa (Enzyme Research Laboratories) was incubated at 25° C. with the fluorogenic substrate H-DPro-Phe-Arg-AFC and various concentrations of the test compound. Residual enzyme activity (initial rate of reaction) was determined by measuring the change in […] at 410 nm and the IC50 value for the test compound was determined.

The nature of series [1]: Plasma protein binding (PPB), rapid equilibrium dialysis, rat plasma. Format: in vitro ADME. The settings on record: 5 μM test compound, dialysis 5 hrs at 37° C. For orientation: In equilibrium dialysis free small molecules cross a membrane that holds back macromolecules.
Series [2] can be described thus: Intrinsic clearance in human liver microsomes. In kind it is in vitro ADME. As to conditions: human liver microsomes 0.5 mg/mL, 5 μM test compound, 37° C.; read-out: Human liver microsome (Clint μL/min/mg protein). On the procedure: Rat or human liver microsomes (0.5 mg/mL; Corning) were incubated with 5 μM test compound at 37° C. on a shaking platform (150 rpm). Samples were taken at 0, 6, 12, 18, 24 and 60 min and test compound concentrations were determined by LCMS against a calibration curve.
For orientation: Microsomes from liver hold many membrane-bound enzymes, among them those of drug oxidation.

Series [3] in a line: Predicted plasma clearance (Clp), well-stirred model, rat. Format: in vitro ADME. As to conditions: percentage of hepatic blood flow.
A further series addresses Human KLK1 (Homo sapiens (Human), UniProt P06870). The series is described as follows: Determination of the IC50 for KLK1. In kind it is biochemical. As to conditions: 25° C., substrate H-DVal-Leu-Arg-AFC. On the procedure: Human KLK1 (Callbiochem) was incubated at 25° C. with the fluorogenic substrate H-DVal-Leu-Arg-AFC and various concentrations of the test compound. Residual enzyme activity (initial rate of reaction) was determined by measuring the change in […] at 410 nm and the IC50 value for the test compound was determined.

The structures appear in SMILES notation. Bounds are passed on as bounds.

Sequence of Human KLK1 (P06870 25-262): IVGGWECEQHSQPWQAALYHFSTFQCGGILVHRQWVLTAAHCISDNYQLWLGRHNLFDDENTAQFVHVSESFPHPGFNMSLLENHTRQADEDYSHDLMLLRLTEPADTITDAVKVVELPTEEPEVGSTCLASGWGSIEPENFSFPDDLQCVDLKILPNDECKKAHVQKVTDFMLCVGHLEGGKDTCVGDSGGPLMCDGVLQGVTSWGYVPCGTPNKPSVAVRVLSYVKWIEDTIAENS
Sequence of Human Factor XIIa (P00748 373-615): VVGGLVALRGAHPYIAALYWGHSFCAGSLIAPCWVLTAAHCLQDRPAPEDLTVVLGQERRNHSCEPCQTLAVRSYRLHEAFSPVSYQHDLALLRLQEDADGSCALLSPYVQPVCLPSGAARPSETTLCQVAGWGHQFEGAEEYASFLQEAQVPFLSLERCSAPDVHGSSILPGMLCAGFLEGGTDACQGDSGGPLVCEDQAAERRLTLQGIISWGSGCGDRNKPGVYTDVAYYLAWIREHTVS

Turning to `COCc1nn(Cc2ccc(Cn3ccccc3=O)cc2)cc1C(=O)NCc1c(-n2cnnn2)ccc(OC)c1F` [Example 39, N-{[2-Fluoro-3-methoxy-6-(1,2,3,4-tetrazol-1-yl)phenyl]methyl}-3-(methoxymethyl)-1-({4-[(2-oxopyridin-1-yl)methyl]phenyl}methyl)pyrazole-4-carboxamide], the IC50 at Human Factor XIIa and against Human KLK1 was more than 4 µM in each case. This compound also had a fraction unbound at 5 h, 5 μM in series [1] of 0.11. Moreover, the microsomal CLint at 5 μM in series [2] was 29 µL/min/mg. In series [3], the “Predicted in vivo rat Clp (% LBF)” value is listed as 5 % LBF.
Consider `COCc1nn(Cc2cnc(N3CCCC3)nc2)cc1C(=O)NCc1c(-n2cnnn2)ccc(OC)c1F` [Example 79, N-{[2-Fluoro-3-methoxy-6-(1,2,3,4-tetrazol-1-yl)phenyl]methyl}-3-(methoxymethyl)-1-{[2-(pyrrolidin-1-yl)pyrimidin-5-yl]methyl}pyrazole-4-carboxamide], for which the IC50 on Human Factor XIIa and on Human KLK1 was more than 40 µM throughout. This compound also had a fraction unbound at 5 h, 5 μM in series [1] of 0.05. Besides, the microsomal CLint at 5 μM in series [2] is 4 µL/min/mg. For the same compound, in series [3], the “Predicted in vivo rat Clp (% LBF)” value is on record as 3 % LBF.

Usually IC50 stands for the concentration needed to halve the response being measured. Usually fraction unbound stands for the share of the substance not bound to proteins or other matrix. High values mean much free substance, low ones little free substance.
